Calls of active or inactive are those of the source.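 The calls were made as follows: active = compounds whose fitted half-maximal concentration in the cell-protection dose series is at or below a set limit; inactive = the rest.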

This note sets out measurements from PubChem BioAssay AID588780 (Sanford-Burnham Center for Chemical Genomics, 2011).

For the experiment, the system named is H9c2 cardiomyocytes, 2-deoxyglucose stress, ATP luminescence, 2 h. Put plainly: protection of cardiomyocytes from 2-deoxyglucose injury, dose response, cell-based, 2-deoxyglucose stress, uHTS hits (AID 588780).
Consider `CC(OC(=O)c1cc(-c2cccnc2)nc2ccccc12)C(=O)Nc1ccc2ccccc2c1` (stereo not drawn), for which the IC50 is 11 µM. Take `CCOC(=O)c1c(C)nc2sc3c(=O)n(-c4ccc(C(C)=O)cc4)cnc3c2c1-c1ccc(OC)cc1`: the IC50 was > 79 µM (inactive). On to `c1ccc(-c2nc(-n3ccnc3)nc(-n3ccnc3)n2)cc1`, for which the IC50 was > 79 µM (inactive).

For the compound `Cc1ccc(-c2nn3c(C)nnc3s2)cc1NC(=O)COc1ccc(Cl)cc1`, the IC50 is > 79 µM (inactive). The figure for `Oc1c(Br)cc(Cl)cc1C=Nc1ccccc1Br` is 31.6 µM (inactive); for `N#C/C(=C\c1ccc(-c2cccc([N+](=O)[O-])c2)o1)C(=O)NCCN1CCOCC1` it is > 79 µM (inactive). Under `O=C(COc1cccc2c1CCNC2=O)Nc1ccc(Cl)cc1` stands > 79 µM (inactive); under `CCCCCCn1c(C)nc2c(c1=O)c1nc3ccccc3nc1n2/N=C/c1ccco1`, > 79 µM (inactive). Take `Cc1nc2ccccc2c2c(N)c3ccccc3n12`: the IC50 was 26.5 µM.

`Cc1ccc(C(=O)Nc2nc(-c3ccccn3)cs2)s1`: the IC50 is > 79 µM (inactive). Under `CCOc1ccc(-n2c(C)c(C(C)=O)c3cc(OC(C)=O)ccc32)cc1` stands > 79 µM (inactive); under `COc1cc(NC(=O)c2cccc3c(-c4cnn(C)c4)coc23)cc(OC)c1OC`, > 79 µM (inactive). The figure for `O=c1[nH]c2cc3c(cc2cc1CN(Cc1nnnn1CC1CCCO1)C1CCCCC1)OCO3` (stereo not drawn) is 57.1 µM (inactive); for `CCSc1nnc(NC(=O)C2Cc3ccccc3CN2S(=O)(=O)CC)s1` (stereo not drawn) it is 43.6 µM (inactive). The figure for `COc1ccc(C(C(=O)NCc2ccccc2)N(Cc2ccco2)C(=O)c2snc(C(N)=O)c2N)cc1` (stereo not drawn) is > 79 µM (inactive). For the compound `S=c1[nH]c2ccccc2c2ccccc12`, the IC50 was > 79 µM (inactive). The figure for `O=c1[nH]nc(-c2ccc(NCCO)c([N+](=O)[O-])c2)c2ccccc12` is > 79 µM (inactive). On to `O=C(NN=Cc1ccc(N2CCOCC2)s1)c1ccc([N+](=O)[O-])cc1`, for which the IC50 is > 79 µM (inactive). The figure for `O=C(NNC(=O)c1ccccc1OCc1ccccc1Cl)c1csc(N2CCOCC2)n1` is 22.4 µM; for `O=C(N/N=C/c1cccc(O)c1)c1cc(-c2ccc3c(c2)OCO3)n[nH]1` it is > 79 µM (inactive); for `COc1ccc(Nc2nc(C(=O)N3CCc4cc(OC)c(OC)cc4C3)cs2)cc1` it is > 79 µM (inactive).

As to `O=C1[C@H]2[C@@H](c3ccc(C(F)(F)F)cc3)N[C@]3(CCCN(Cc4ccc(F)cc4)C3=O)[C@H]2C(=O)N1Cc1ccccc1`, the IC50 is > 79 µM (inactive). Consider `CCN(CC)S(=O)(=O)c1ccc(Nc2nc3ccccc3n3nnnc23)cc1`, for which the IC50 was > 79 µM (inactive). Under `Cc1c(C#N)c(N)nc2c3c(sc12)NC(=O)CC3c1ccccc1` (stereo not drawn) stands > 79 µM (inactive); under `COc1ccc(-c2cc(C(F)F)n3ncc(C(=O)Nc4ccc(C(=O)N5CCOCC5)cc4)c3n2)cc1`, > 79 µM (inactive). Under `CC(=O)c1ccc(-c2ccc(C(=O)Nc3nc(-c4ccccn4)cs3)o2)cc1` stands 44.7 µM (inactive). The figure for `COc1ccc(C(C(=O)NCc2ccccc2)N(Cc2cccs2)C(=O)c2cnccn2)cc1` (stereo not drawn) is 16.1 µM; for `Cc1c(C2Nc3ccccc3C(=O)N2O)cnn1C` (stereo not drawn) it is 14.6 µM; for `CCOC(=O)CSc1nnc(CSc2nc3ccccc3c(=O)[nH]2)n1-c1ccccc1` it is > 79 µM (inactive). With `CC1CCCC(C)N1C(=O)COC(=O)c1n[nH]c(=O)c2ccccc12` (stereo not drawn), the IC50 was > 79 µM (inactive). Under `Fc1ccc(-n2cc(-c3ccccc3)c3c(N4CCOCC4)ncnc32)cc1` stands > 79 µM (inactive); under `COc1cc(/C=C(\C#N)C(=O)Nc2ccccc2F)ccc1OCCN1CCOCC1`, 25.9 µM; under `O=C(COC(=O)Cc1n[nH]c(=O)c2ccccc12)Nc1ccc(Cl)cc1F`, > 79 µM (inactive). With `COc1ccccc1CN(C)C(=O)c1cc(-c2cc(OC)c(OC)c(OC)c2)nc2ccccc12`, the IC50 is 6.57 µM. For `CC(Oc1ccc(F)cc1)C(=O)Nc1nc(-c2ccccn2)cs1` (stereo not drawn), the IC50 is 37.5 µM (inactive). Under `CCOC(=O)C1=c2/c(=C/c3ccncc3)c(N)c(C(=O)OC)n2C(=O)C(c2ccncc2)S1` (stereo not drawn) stands > 79 µM (inactive); under `COc1cc(OC)c2ccc(=O)oc2c1C(CC(=O)N1CCN(c2ccccc2)CC1)c1ccc2c(c1)OCO2` (stereo not drawn), > 79 µM (inactive). Consider `CCCOc1ccc2[nH]c(C(=O)N/N=C/c3cc(OC)c(OC)c(OC)c3)cc2c1`, for which the IC50 was 9.02 µM. Take `O=C(Nc1nc(-c2ccccn2)cs1)c1cccc(S(=O)(=O)N2CCOCC2)c1`: the IC50 is 41.5 µM (inactive).

Turning to `CCOC(=O)Cn1c(=NC(=O)c2cc(-c3cccs3)nc3ccccc23)sc2cc(S(N)(=O)=O)ccc21`, the IC50 is > 79 µM (inactive). The figure for `COc1ccc(S(=O)(=O)N(CCCN2CCCC2=O)Cc2cc3cc(C)c(C)cc3[nH]c2=O)cc1` is 26.9 µM; for `CCOc1ccc2nc(NC(=O)CN3CCC(n4nnc5cc(F)ccc54)CC3)sc2c1` it is > 79 µM (inactive). In the case of `CC(C)(C)c1ccc(OCC(=O)Nc2ccc3c4c(cccc24)C(=O)NC3=O)cc1`, the IC50 is > 79 µM (inactive). The figure for `O=C(CN1CCN(S(=O)(=O)c2ccc(Br)cc2)CC1)c1ccc(O)c(O)c1` is 19.8 µM. In the case of `O=C(Cc1n[nH]c(=O)c2ccccc12)NCc1ccc(Cl)cc1`, the IC50 is > 79 µM (inactive). Take `CC(C)N1C(=O)S/C(=C/c2ccc3c(c2)n(C)c(=O)n3C)C1=O`: the IC50 was > 79 µM (inactive). Under `COc1ccc(C(=O)COC(=O)C(CCCCN2C(=O)C3C4C=CC(C4)C3C2=O)N2C(=O)C3C4C=CC(C4)C3C2=O)cc1` (stereo not drawn) stands 13.7 µM; under `CC(=O)Nc1ccc(-c2csc(NC(=O)Nc3ccccc3)n2)cc1`, 36.3 µM (inactive); under `CC(=O)Nc1cc(-c2ccccc2)cn2c(-c3cccc(C(C)=O)c3)cnc12`, 17.8 µM. Under `CSc1nc2sc3c(c2c(=O)[nH]1)CCC3` stands > 79 µM (inactive); under `CCOC(=O)[C@H]1[C@H]2COc3ccc(Br)cc3[C@@H]2N2C(=O)c3cc(OC)c(OC)cc3NC(=O)[C@@]12C`, 40 µM (inactive). The figure for `Cc1ccc(-c2n[nH]c(=O)c3ccccc23)cc1S(=O)(=O)NCC1CCCO1` (stereo not drawn) is > 79 µM (inactive); for `Cc1nc(N2CCN(c3ccccn3)CC2)c2c(C)c(C(=O)Nc3ccccc3F)sc2n1` it is 10.5 µM; for `O=C(Nc1nc(-c2cc(F)ccc2F)cs1)C1=NN(c2ccccc2)C(=O)CC1` it is > 79 µM (inactive).

Consider `Cc1nc2ccccc2c(=O)[nH]1`, for which the IC50 was > 79 µM (inactive).

On to `CCCCn1nc(NC(=O)c2cccs2)c2cc3ccccc3nc21`, for which the IC50 is 18.2 µM.

With `CCOc1ccc2ccccc2c1C(=O)N[C@@H]1C(=O)N2[C@@H]1SC(C)(C)[C@@H]2C(=O)O`, the IC50 is 47.1 µM (inactive).

Turning to `O=C(c1cc(-c2cccnc2)nc2ccc(Br)cc12)N1CCN(c2ncccn2)CC1`, the IC50 is 9.44 µM.

For the compound `Cc1ccc(-c2n[nH]c(=O)c3ccccc23)cc1S(=O)(=O)NC(C)(C)C`, the IC50 was > 79 µM (inactive). Under `COC(=O)C1=C(C)N(CCc2ccc(OC)cc2)C(=O)C1` stands 39.4 µM (inactive). As for `Cc1cccc(NC(=O)COc2cccc3c2CCNC3=O)c1`, the IC50 was > 79 µM (inactive). Consider `Cc1cccc(NC(=O)c2oc3ccc(S(=O)(=O)N4CCOCC4)cc3c2C)c1C`, for which the IC50 was > 79 µM (inactive). Under `CC(C)(C)OC(=O)CNC(=O)c1[nH]cnc1C(=O)NCC(=O)OCc1ccccc1` stands > 79 µM (inactive); under `O=c1[nH]c(CSc2nnc(-c3cccnc3)n2C2CCCCC2)nc2ccccc12`, > 79 µM (inactive). The figure for `O=C(Nc1ccccc1)c1nc[nH]c1C(=O)NCCNC(=O)c1[nH]cnc1C(=O)Nc1ccccc1` is > 79 µM (inactive). Consider `CCCCc1cc(=O)oc2cc(O)ccc12`, for which the IC50 is > 79 µM (inactive). The figure for `CCCn1c(SC(C(=O)Nc2cccc(OC)c2)c2ccccc2)nc2ccccc2c1=O` (stereo not drawn) is > 79 µM (inactive). For the compound `CCN1C(=O)/C(=C/c2nc3ccccc3c(=O)n2-c2ccccc2)c2ccccc21`, the IC50 was > 79 µM (inactive). The figure for `COc1ccc(/C=N/NC(=O)c2cc(-c3ccc4c(c3)OCO4)n[nH]2)cc1OC` is > 79 µM (inactive); for `O=C(Nc1cccc(-c2nc3cccnc3s2)c1)c1ccco1` it is > 79 µM (inactive). The figure for `O=C(CN1C(=O)C2C3C=CC(C3)C2C1=O)Nc1nc(-c2ccccn2)cs1` (stereo not drawn) is 29 µM; for `CC(OC(=O)Cc1n[nH]c(=O)c2ccccc12)C(=O)Nc1ccccc1[N+](=O)[O-]` (stereo not drawn) it is 49.1 µM (inactive); for `Cc1ccc(C)c(S(=O)(=O)N2CCN(C(=O)Cn3[nH]c(=O)c4ccccc4c3=O)CC2)c1` it is > 79 µM (inactive).

Consider `COc1ccccc1NC(=O)c1cc(-c2cc(OC)c(OC)c(OC)c2)nc2ccccc12`, for which the IC50 is > 79 µM (inactive). Take `CCC1(C)Cc2c(sc3nc(NN)n(C)c(=O)c23)CO1` (stereo not drawn): the IC50 was > 79 µM (inactive). As for `CN(C)C(=O)/C=C\c1cn(-c2ccccc2)nc1-c1ccc2c(c1)OCCO2`, the IC50 is > 79 µM (inactive). Under `NS(=O)(=O)c1cccc(NC(=O)COC(=O)Cc2n[nH]c(=O)c3ccccc23)c1` stands > 79 µM (inactive); under `CCOc1ccccc1N1CC(O)=C(c2nc3ccccc3s2)C1=N`, > 79 µM (inactive); under `CN(CC(=O)Nc1ccccc1Br)C(=O)CCc1nc2ccccc2c(=O)[nH]1`, > 79 µM (inactive). Turning to `CC(C)C1Nc2ccc(C(=O)N3CCN(c4ccccn4)CC3)cc2NC1=O` (stereo not drawn), the IC50 is > 79 µM (inactive). As for `CCCN(CCC)S(=O)(=O)c1ccc(C(=O)Nc2nnc(-c3cc(OC)cc(OC)c3)o2)cc1`, the IC50 was 9.06 µM. The figure for `COc1ccc(/C=N\NC(=O)c2c(C)nc3ccc(Br)cn23)cc1` is > 79 µM (inactive). `COc1ccc(-c2cc(C(F)(F)F)n3nc(C(=O)N4CCN(C(=O)c5ccco5)CC4)cc3n2)cc1`: the IC50 was > 79 µM (inactive).

As a reminder, the IC50 is the concentration needed to halve the response being measured.
